# “And” between values parts separate entries of the source, which are not always exact repeats. Identical values can stand only once.
# Assays:
# [1] = Weight changes across 1 week of dosing; type: in vivo, rabbit
# [2] = Solubility in ophthalmic eye drop (BSS, 0.5% CMC); type: physicochemical; details: 0.1% (5 mg/5 mL) in BSS with 0.5% CMC, pH 7.0
# Procedure: Non-Limiting, Exemplary Findings Discussed within: • The NCE Compound 1 was formulated within an ophthalmic eye drop with BSS and 0.5% carboxymethylcellulose (CMC) at percentages of 0.1% (5 mg/5 ml) and lower with a pH of 7.0.
# • The R-DOI HCl was formulated within an ophthalmic eye drop with BSS and 0.5% carboxymethylcellulose (CMC) at percentages of 0.1% (5 mg/5 mL) and lower with a pH of 7.0.
# [3] = 0.01% (1 dose/day day 1, 2 dose/day day 2, 4 dose/day days 3-5)
# [4] = 0.1% day 1, then 0.05% (2 dose/day day 2, 4 dose/day days 3-5)
smiles,measurement,setting,value
"COc1cc(C[C@@H](C)N)c(OC)cc1I [R-DOI, (R)-1-(2,5-dimethoxy-4-iodophenyl)-2-aminopropane]",1 week weight,[1]; [3],3.17 kg and 2.89 kg
same,1 week weight change,[1]; [3],0.11 and 0.07
same,weight with repeated dosing,"[1]; 0.01% or 0.05% repeated dosing, 1 week",no loss of weight with repeated dosing
same,1 week weight,[1]; [4],2.96 kg and 2.79 kg
same,1 week weight change,[1]; [4],0.08 and 0.09
same,Solubility of the compound,[2],good with no remaining precipitates

# — patent US20260240792A1, “COMPOSITIONS FOR TREATING 5-HT2 CONDITIONS AND METHODS OF USING THE SAME” (Board of Supervisors of Louisiana State University and …, priority 2022, published 2026)
